In US8557816B2, “Aurora kinase modulators and method of use” (Amgen Inc., priority 2007, dated 2013) one finds IC50 data, which are given here for 25 molecules.

SMILES strings stand for the structures.

One experiment addresses T1, AuroraA-TPX2 (Homo sapiens, UniProt O14965).
T1 construct: 20 μL of AuroraA-TPX2 KD GST for a final volume of about 41 μL; GST
T1 sequence (O14965 133-383 limits assumed): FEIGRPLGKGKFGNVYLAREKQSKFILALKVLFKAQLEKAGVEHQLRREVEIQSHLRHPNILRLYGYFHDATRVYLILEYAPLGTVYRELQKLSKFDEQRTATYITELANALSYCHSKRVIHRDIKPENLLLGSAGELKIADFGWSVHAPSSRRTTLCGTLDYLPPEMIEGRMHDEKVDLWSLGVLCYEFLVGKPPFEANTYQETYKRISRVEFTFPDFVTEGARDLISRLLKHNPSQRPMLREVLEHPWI
T1 sequence (Q9ULW0 1-43 partner limits assumed): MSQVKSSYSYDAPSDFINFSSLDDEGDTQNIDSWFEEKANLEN
Nature of the experiment: AuroraA-TPX2 Homogeneous Time Resolved Fluorescent (HTRF) kinase assay. The format is biochemical. The note with it: average; read-out: AurA_IC50_IP (uM Avg). An outline of the steps:
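HTRF read-out (Eu 615 nm to APC 655 nm) of phosphorylated biotin-PLK, detected with 0.02 nM europium anti-phosphoPLK antibody and 0.0005 mg/mL SA-APC after overnight equilibration.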
On the technique in general: Time-resolved FRET reads energy transfer from a long-lived donor to a nearby acceptor.

The next experiment deals with T2, AuroraB (Homo sapiens, UniProt Q96GD4).
T2 construct: 20 μL of AuroraB FL H is for a final volume of 41 μL; His
T2 sequence (Q96GD4 whole entry): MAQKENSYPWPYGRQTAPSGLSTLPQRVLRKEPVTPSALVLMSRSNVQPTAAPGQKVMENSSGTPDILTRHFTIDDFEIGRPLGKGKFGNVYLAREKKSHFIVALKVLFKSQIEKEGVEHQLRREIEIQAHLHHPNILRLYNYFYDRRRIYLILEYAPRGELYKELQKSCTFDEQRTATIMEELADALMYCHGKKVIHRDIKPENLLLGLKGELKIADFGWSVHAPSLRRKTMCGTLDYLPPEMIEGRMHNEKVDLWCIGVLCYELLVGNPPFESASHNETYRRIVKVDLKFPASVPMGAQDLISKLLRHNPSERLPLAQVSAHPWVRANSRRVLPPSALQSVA
Nature of the experiment: AuroraB Homogeneous Time Resolved Fluorescent (HTRF) kinase assay. The format is biochemical. The note with it: average; read-out: AurB_IC50_IP (uM Avg). An outline of the steps: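 Read-out is time-resolved FRET between europium anti-phospho-H3 antibody and streptavidin-APC, added in EDTA buffer to stop the reaction and equilibrated about 60 min (ex 320, em 615 and 655 nm). Preceding reaction: ~90 min, full-length enzyme, ATP, 0.1 μM biotin-Histone H3 substrate, Mg/Mn HEPES buffer pH 7.5.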

As for `COc1cnc2c(Sc3ccc(Nc4nnc(-c5ccc(C)c(O)c5)c5ccccc45)cc3)ccnc2c1` [compound 451], the IC50 came out at 0.078 µM at AuroraA-TPX2 and 0.033 µM on AuroraB.
As to `Cc1csc(-c2nnc(Nc3ccc(Oc4ccnc5ccc(OC(F)(F)F)cc45)cc3)c3ccccc23)c1` [compound 575], the values for the IC50 on AuroraA-TPX2 and at AuroraB were 0.226 µM and 0.81 µM, respectively.
For `COc1cnc2c(Oc3ccc(Nc4nnc(-c5ccc(OC)c(F)c5)c5ccccc45)cc3)ccnc2c1` [compound 227, 4-(3-fluoro-4-(methyloxy)phenyl)-N-(4-((7-(methyloxy)-1,5-naphthyridin-4-yl)oxy)phenyl)-1-phthalazinamine], the IC50 came out at 0.051 µM at AuroraA-TPX2 and 0.003 µM at AuroraB.
On the same counts, the results for `Clc1ccc(-c2nnc(Nc3ccc(Oc4ncnc5ccccc45)cc3)c3ccccc23)cc1` [compound 562] are 0.107 µM and 0.006 µM.
For `COc1cc2nccc(Oc3ccc(Nc4nnc(-c5cccc(C)n5)c5ccccc45)cn3)c2cn1` [compound 127, N-(6-((7-(methyloxy)-1,6-naphthyridin-4-yl)oxy)-3-pyridinyl)-4-(6-methyl-2-pyridinyl)-1-phthalazinamine], the IC50 stood at 0.241 µM on AuroraA-TPX2 and 0.009 µM at AuroraB.
On the same counts, the results for `COc1cnc2c(Oc3ccc(Nc4nnc(-c5cccc(Cl)c5)c5ccccc45)cc3)ccnc2c1` [compound 219, 4-(3-chlorophenyl)-N-(4-((7-(methyloxy)-1,5-naphthyridin-4-yl)oxy)phenyl)-1-phthalazinamine] are 0.051 µM and 0.01 µM.
On the same counts, the results for `COc1cc2ncnc(Oc3ccc(Nc4nnc(-c5ccccc5)c5ccccc45)cc3)c2cc1OC` [compound 98, N-(4-((6,7-bis(methyloxy)-4-quinazolinyl)oxy)phenyl)-4-phenyl-1-phthalazinamine] are 0.016 µM and 0.007 µM.
On the same counts, the results for `Cc1ccc(-c2nnc(Nc3ccc(Sc4ccnc5ccoc45)cc3)c3ccccc23)cc1N` [compound 479] are over 125 µM and over 125 µM.
For `COc1cnc2c(Oc3ccc(Nc4nnc(-c5ccc(OC)nc5)c5ccccc45)cc3)ccnc2c1` [compound 158, N-(4-((7-(methyloxy)-1,5-naphthyridin-4-yl)oxy)phenyl)-4-(6-(methyloxy)-3-pyridinyl)-1-phthalazinamine], the IC50 at AuroraA-TPX2 was 0.037 µM; at AuroraB it was 0.005 µM.
On the same counts, the results for `COc1cnc2c(Sc3ccc(Nc4nnc(N5CCN(S(C)(=O)=O)CC5)c5ccccc45)cc3)ccnc2c1` [compound 605] are 0.803 µM and 0.083 µM.
On the same counts, the results for `COc1ccc(F)cc1-c1nnc(Nc2ccc(Oc3ccnc4cc(C(N)=O)ccc34)cc2)c2ccccc12` [Example 47, 4-(4-(4-(5-fluoro-2-methoxyphenyl)phthalazin-1-ylamino)phenoxy)quinoline-7-carboxamide] are 5 µM and 0.138 µM.
Turning to `O=C(Nc1cc(Oc2ccc(Nc3nnc(-c4ccccc4)c4ccccc34)cc2F)ccn1)N1CCOCC1` [compound 179, N-(4-((2-fluoro-4-((4-phenyl-1-phthalazinyl)amino)phenyl)oxy)-2-pyridinyl)-4-morpholinecarboxamide], the IC50 on AuroraA-TPX2 amounted to 0.18 µM; on AuroraB, 0.043 µM.
On the same counts, the results for `CCc1cc(-c2ccc(C)cc2)nnc1Nc1ccc(Oc2ccnc3cc(OC)cnc23)cc1` [compound 307, 4-ethyl-N-(4-((7-(methyloxy)-1,5-naphthyridin-4-yl)oxy)phenyl)-6-(4-methylphenyl)-3-pyridazinamine] are 0.022 µM and 0.006 µM.
Turning to `COc1cnc2c(Oc3ccc(Nc4nnc(-c5ccc6c(c5)CCO6)c5ccccc45)cc3)ccnc2c1` [compound 168, 4-(2,3-dihydro-1-benzofuran-5-yl)-N-(4-((7-(methyloxy)-1,5-naphthyridin-4-yl)oxy)phenyl)-1-phthalazinamine], the IC50 was found to be 0.008 µM on AuroraA-TPX2 and 0.005 µM at AuroraB.
Turning to `c1ccc(-c2nnc(Nc3ccc(Sc4ccnc5[nH]ccc45)cc3)c3ccccc23)cc1` [compound 329, 4-phenyl-N-(4-(1H-pyrrolo[2,3-b]pyridin-4-ylthio)phenyl)-1-phthalazinamine], the IC50 on AuroraA-TPX2 was found to be 0.114 µM; on AuroraB it was 0.009 µM.
Turning to `COc1cnc2c(Oc3ccc(Nc4nnc(-c5cccc(C)c5)c5ccccc45)cc3)ccnc2c1` [compound 317, N-(4-((7-(methyloxy)-1,5-naphthyridin-4-yl)oxy)phenyl)-4-(3-methylphenyl)-1-phthalazinamine], the IC50 at AuroraA-TPX2 amounted to 0.018 µM; at AuroraB, 0.015 µM.
`COc1cnc2c(Oc3ccc(Nc4nnc(-c5ccc(Cl)cc5OC)c5ccccc45)cc3)ccnc2c1` [compound 253, 4-(4-chloro-2-(methyloxy)phenyl)-N-(4-((7-(methyloxy)-1,5-naphthyridin-4-yl)oxy)phenyl)-1-phthalazinamine]: the IC50 on AuroraA-TPX2 is 0.173 µM; at AuroraB, 0.009 µM.
`COc1cnc2c(Sc3ccc(Nc4nnc(-c5ccc(Cl)cn5)c5ccccc45)cc3)ccnc2c1` [compound 304, 4-(5-chloro-2-pyridinyl)-N-(4-((7-(methyloxy)-1,5-naphthyridin-4-yl)thio)phenyl)-1-phthalazinamine]: the values for the IC50 at AuroraA-TPX2 and at AuroraB were 0.013 µM and 0.019 µM, respectively.
On the same counts, the results for `c1cnc2c(Sc3ccc(Nc4nnc(-c5ccc6c(c5)OCO6)c5ccccc45)cc3)ccnc2c1` [compound 443] are 0.012 µM and 0.002 µM.
On the same counts, the results for `COc1cc2nccc(Oc3ccc(Nc4nnc(-n5nc(C)cc5C)c5ccccc45)cc3F)c2cc1OC` [compound 77, N-(4-((6,7-bis(methyloxy)-4-quinolinyl)oxy)-3-fluorophenyl)-4-(3,5-dimethyl-1H-pyrazol-1-yl)-1-phthalazinamine] are 0.701 µM and 0.079 µM.
As to `c1ccc2c(-c3ccc4c(c3)OCO4)nnc(Nc3ccc(Oc4ccnc5ccsc45)cc3)c2c1` [compound 279, 4-(1,3-benzodioxol-5-yl)-N-(4-(thieno[3,2-b]pyridin-7-yloxy)phenyl)-1-phthalazinamine], the figures for the IC50 at AuroraA-TPX2 and on AuroraB were 0.078 µM and 0.001 µM, respectively.
On to `COc1cnc2c(Oc3ccc(Nc4nnc(-c5ccc(N6CCCCC6)cc5)c5ccccc45)cc3)ccnc2c1` [compound 198, N-(4-((7-(methyloxy)-1,5-naphthyridin-4-yl)oxy)phenyl)-4-(4-(1-piperidinyl)phenyl)-1-phthalazinamine], for which the IC50 at AuroraA-TPX2 was 0.128 µM; on AuroraB, 0.004 µM.
`Clc1ccc(-c2nnc(Nc3ccc(Oc4ccnc5ccncc45)cc3)c3ccccc23)cc1` [compound 423]: the IC50 turned out to be 0.047 µM at AuroraA-TPX2 and 0.003 µM at AuroraB.
On the same counts, the results for `COc1ccc2c(Oc3ccc(Nc4nnc(-c5ccccc5)c5c4CCC5)cc3)ccnc2c1` [compound 368, N-(4-(7-methoxyquinolin-4-yloxy)phenyl)-4-phenyl-6,7-dihydro-5H-cyclopenta[d]pyridazin-1-amine] are 0.04 µM and 0.063 µM.
On the same counts, the results for `COc1cnc2c(Sc3ccc(Nc4nnc(OC)c5ccccc45)cc3)ccnc2c1` [Example 402, 4-Methoxy-N-(4-(7-methoxy-1,5-naphthyridin-4-ylthio)phenyl)phthalazin-1-amine] are 0.167 µM and 0.015 µM.
